Laboratory results: patent publication US10059717B2, “Urea compounds containing 3,4-dihydropyrimido[4,5-D]pyrimidin-2(1H)-one skeleton as protein kinase inhibitors” (KOREA INSTITUTE OF SCIENCE AND TECHNOLOGY, priority 2016, dated 2018)

Tests used:
GCK = target: T1, GCK (Homo sapiens, UniProt Q12851); assay: GCK kinase inhibitory activity; type: biochemical; settings: read-out: Kinase inhibitory efficacy, GI50 GCK
T1 sequence (Q12851 1-820): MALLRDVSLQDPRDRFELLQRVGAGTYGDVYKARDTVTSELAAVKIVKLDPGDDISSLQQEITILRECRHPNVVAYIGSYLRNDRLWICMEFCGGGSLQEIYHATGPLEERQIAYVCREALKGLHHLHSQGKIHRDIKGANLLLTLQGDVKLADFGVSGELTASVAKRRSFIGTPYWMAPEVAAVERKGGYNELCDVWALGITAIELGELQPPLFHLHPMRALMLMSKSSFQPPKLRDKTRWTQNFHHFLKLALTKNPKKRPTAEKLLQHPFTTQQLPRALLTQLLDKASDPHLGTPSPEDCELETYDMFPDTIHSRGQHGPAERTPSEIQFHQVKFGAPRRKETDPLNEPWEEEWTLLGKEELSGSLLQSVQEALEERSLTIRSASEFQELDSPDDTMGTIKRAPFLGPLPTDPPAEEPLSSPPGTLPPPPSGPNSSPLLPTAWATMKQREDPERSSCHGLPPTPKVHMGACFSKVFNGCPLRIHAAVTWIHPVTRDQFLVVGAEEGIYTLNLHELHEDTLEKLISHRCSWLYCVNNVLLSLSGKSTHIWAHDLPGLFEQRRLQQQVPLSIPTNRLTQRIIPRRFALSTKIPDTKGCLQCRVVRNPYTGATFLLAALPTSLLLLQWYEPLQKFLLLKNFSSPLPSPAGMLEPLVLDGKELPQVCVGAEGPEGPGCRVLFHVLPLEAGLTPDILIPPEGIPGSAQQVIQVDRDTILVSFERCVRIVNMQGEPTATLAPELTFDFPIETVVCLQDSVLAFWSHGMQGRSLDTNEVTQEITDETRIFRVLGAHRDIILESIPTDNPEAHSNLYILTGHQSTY
Experimental: (§1) GI50 values were calculated by measuring the inhibitory efficacy of the compounds of the present invention against both GCK and ACK1 kinases.

ACK1 = ACK1 (Homo sapiens, UniProt Q07912); assay: ACK1 kinase inhibitory activity; type: biochemical; settings: read-out: Kinase inhibitory efficacy, GI50 ACK1
Experimental: as §1

OCI-AML3 (N-Ras Q61L) = assay: Proliferation inhibitory activity, OCI-AML3; type: cell-based; settings: Homo sapiens, OCI-AML-3; OCI-AML3 (N-Ras Q61L) cell line; read-out: Proliferation inhibitory efficacy (GI50, μM) OCI-AML3 (N-Ras Q61L)
Experimental: (§2) GI50 values were calculated by measuring the proliferation inhibitory efficacy of the compounds of the present invention on mt-NRAS (G12D) Ba/F3, U937 (wt-NRAS) and OCI-AML3 (mt-NRAS) cell lines.
Accordingly, the compounds of the present invention are particularly effective as a therapeutic agent for acute myelogenous leukemia (AML).

U937 (N-Ras WT) = assay: Proliferation inhibitory activity, U937; type: cell-based; settings: Homo sapiens, U-937; U937 (N-Ras WT) cell line; read-out: Proliferation inhibitory efficacy (GI50, μM) U937 (N-Ras WT)
Experimental: as §2

Ba/F3 (N-Ras G12D) = assay: Proliferation inhibitory activity, Ba/F3; type: cell-based; settings: Mus musculus, BaF3; Ba/F3 (N-Ras G12D) cell line; read-out: Proliferation inhibitory efficacy (GI50, μM) Ba/F3 (N-Ras G12D)
Experimental: as §2

Chain of ACK1 (Q07912 whole entry): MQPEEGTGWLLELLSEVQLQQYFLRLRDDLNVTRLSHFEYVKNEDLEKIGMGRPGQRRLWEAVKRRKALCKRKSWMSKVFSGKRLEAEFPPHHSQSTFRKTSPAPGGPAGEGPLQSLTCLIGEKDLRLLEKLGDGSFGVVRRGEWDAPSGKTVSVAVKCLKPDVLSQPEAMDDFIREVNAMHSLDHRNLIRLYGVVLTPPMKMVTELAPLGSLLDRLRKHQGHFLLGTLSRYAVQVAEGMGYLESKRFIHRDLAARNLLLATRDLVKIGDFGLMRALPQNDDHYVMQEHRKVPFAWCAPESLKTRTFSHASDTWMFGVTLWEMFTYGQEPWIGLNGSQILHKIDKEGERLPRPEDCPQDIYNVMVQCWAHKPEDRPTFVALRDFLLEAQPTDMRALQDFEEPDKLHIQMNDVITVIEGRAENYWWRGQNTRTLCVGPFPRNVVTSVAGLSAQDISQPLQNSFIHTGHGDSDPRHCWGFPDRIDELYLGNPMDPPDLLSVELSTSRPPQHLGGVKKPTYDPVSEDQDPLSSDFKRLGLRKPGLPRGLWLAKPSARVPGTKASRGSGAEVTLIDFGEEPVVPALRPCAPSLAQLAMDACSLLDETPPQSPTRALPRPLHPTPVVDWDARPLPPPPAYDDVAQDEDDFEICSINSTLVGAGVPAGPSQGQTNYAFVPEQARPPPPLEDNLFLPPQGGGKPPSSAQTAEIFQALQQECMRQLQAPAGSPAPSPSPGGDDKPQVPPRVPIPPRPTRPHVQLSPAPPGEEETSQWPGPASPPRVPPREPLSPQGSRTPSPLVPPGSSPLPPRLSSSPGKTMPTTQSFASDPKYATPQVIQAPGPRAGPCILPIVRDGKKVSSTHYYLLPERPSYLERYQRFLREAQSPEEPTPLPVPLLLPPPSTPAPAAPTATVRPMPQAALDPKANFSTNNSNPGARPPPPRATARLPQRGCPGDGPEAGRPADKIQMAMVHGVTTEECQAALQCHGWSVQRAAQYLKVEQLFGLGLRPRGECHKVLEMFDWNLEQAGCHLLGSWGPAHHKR

| SMILES | GI50 (GCK) [nM] | GI50 (ACK1) [nM] | GI50 (OCI-AML3 (N-Ras Q61L)) [µM] | GI50 (U937 (N-Ras WT)) [µM] | GI50 (Ba/F3 (N-Ras G12D)) [µM] |
| --- | --- | --- | --- | --- | --- |
| Cc1ccc(Nc2ncc3c(n2)N(C)C(=O)N(c2cc(NC(=O)Nc4ccccc4C(F)(F)F)ccc2C)C3)cn1 [Compound No. 4, 1-(4-methyl-3-(1-methyl-7-((6-methylpyridin-3-yl)amino)-2-oxo-1,4-dihydropyrimido[4,5-d]pyrimidin-3(2H)-yl)phenyl)-3-(2-(trifluoromethyl)phenyl)urea] | ≥ 300 | < 30 | < 0.5 | ≥ 5 | 0.5 to 3 |
| COc1ccccc1NC(=O)Nc1ccc(C)c(N2Cc3cnc(Nc4ccc(C)nc4)nc3N(C)C2=O)c1 [Compound No. 1, 1-(2-methoxyphenyl)-3-(4-methyl-3-(1-methyl-7-((6-methylpyridin-3-yl)amino)-2-oxo-1,4-dihydropyrimido[4,5-d]pyrimidin-3(2H)-yl)phenyl)urea] | 30 to 100 | < 30 | < 0.5 | ≥ 5 | < 0.5 |
| Cc1ccc(Nc2ncc3c(n2)N(C)C(=O)N(c2cc(NC(=O)Nc4cccc(C(F)(F)F)c4)ccc2C)C3)cn1 [Compound No. 7, 1-(4-methyl-3-(1-methyl-7-((6-methylpyridin-3-yl)amino)-2-oxo-1,4-dihydropyrimido[4,5-d]pyrimidin-3(2H)-yl)phenyl)-3-(3-(trifluoromethyl)phenyl)urea] | 100 to 300 | < 30 | 0.5 to 3 | ≥ 5 | < 0.5 |
| Cc1ccc(Nc2ncc3c(n2)N(C)C(=O)N(c2cc(NC(=O)Nc4ccccc4C)ccc2C)C3)cn1 [Compound No. 5, 1-(4-methyl-3-(1-methyl-7-((6-methylpyridin-3-yl)amino)-2-oxo-1,4-dihydropyrimido[4,5-d]pyrimidin-3(2H)-yl)phenyl)-3-(o-tolyl)urea] | 100 to 300 | < 30 | 0.5 to 3 | ≥ 5 | 0.5 to 3 |
| Cc1ccc(Nc2ncc3c(n2)N(C)C(=O)N(c2cc(NC(=O)Nc4ccccc4OC(F)(F)F)ccc2C)C3)cn1 [Compound No. 3, 1-(4-methyl-3-(1-methyl-7-((6-methylpyridin-3-yl)amino)-2-oxo-1,4-dihydropyrimido[4,5-d]pyrimidin-3(2H)-yl)phenyl)-3-(2-(trifluoromethoxy)phenyl)urea] | ≥ 300 | < 30 | 0.5 to 3 | ≥ 5 | 3 to 5 |
| Cc1ccc(Nc2ncc3c(n2)N(C)C(=O)N(c2cc(NC(=O)Nc4ccccc4)ccc2C)C3)cn1 [Compound No. 2, 1-(4-methyl-3-(1-methyl-7-((6-methylpyridin-3-yl)amino)-2-oxo-1,4-dihydropyrimido[4,5-d]pyrimidin-3(2H)-yl)phenyl)-3-phenylurea] | 100 to 300 | < 30 | 0.5 to 3 | ≥ 5 | 0.5 to 3 |

Other lines, results leading:

| GI50 (GCK) [nM] | GI50 (ACK1) [nM] | GI50 (OCI-AML3 (N-Ras Q61L)) [µM] | GI50 (U937 (N-Ras WT)) [µM] | GI50 (Ba/F3 (N-Ras G12D)) [µM] | SMILES |
| --- | --- | --- | --- | --- | --- |
| < 30 | 30 to 100 | < 0.5 | ≥ 5 | < 0.5 | COc1ccccc1NC(=O)Nc1ccc(C)c(N2Cc3cnc(Nc4ccc(N5CCC(C(N)=O)CC5)nc4)nc3N(C)C2=O)c1 [Compound No. 18, 1-(5-((6-(5-(3-(2-methoxyphenyl)ureido)-2-methylphenyl)-8-methyl-7-oxo-5,6,7,8-tetrahydropyrimido[4,5-d]pyrimidin-2-yl)amino)pyridin-2-yl)piperidin-4-carboxamide] |
| 100 to 300 | < 30 | < 0.5 | ≥ 5 | < 0.5 | CNC(=O)c1ccc(Nc2ncc3c(n2)N(C)C(=O)N(c2cc(NC(=O)Nc4ccccc4OC)ccc2C)C3)cn1 [Compound No. 15] |
| 30 to 100 | 30 to 100 | < 0.5 | ≥ 5 | < 0.5 | COc1ccc(NC(=O)Nc2ccc(C)c(N3Cc4cnc(Nc5ccc(C)nc5)nc4N(C)C3=O)c2)cc1 [Compound No. 10, 1-(4-methoxyphenyl)-3-(4-methyl-3-(1-methyl-7-((6-methylpyridin-3-yl)amino)-2-oxo-1,4-dihydropyrimido[4,5-d]pyrimidin-3(2H)-yl)phenyl)urea] |
| 100 to 300 | < 30 | < 0.5 | ≥ 5 | < 0.5 | COc1ccccc1NC(=O)Nc1ccc(C)c(N2Cc3cnc(Nc4ccc(C(=O)NC5CC5)nc4)nc3N(C)C2=O)c1 [Compound No. 16, N-cyclopropyl-5-((6-(5-(3-(2-methoxyphenyl)ureido)-2-methylphenyl)-8-methyl-7-oxo-5,6,7,8-tetrahydropyrimido[4,5-d]pyrimidin-2-yl)amino)picolinamide] |
| < 30 | < 30 | < 0.5 | 0.5 to 3 | < 0.5 | CCN1CCN(c2ccc(Nc3ncc4c(n3)N(C)C(=O)N(c3cc(NC(=O)Nc5ccccc5OC)ccc3C)C4)cc2)CC1 [Compound No. 11, 1-(3-(7-((4-(4-ethylpiperazin-1-yl)phenyl)amino)-1-methyl-2-oxo-1,4-dihydropyrimido[4,5-d]pyrimidin-3(2H)-yl)-4-methylphenyl)-3-(2-methoxyphenyl)urea] |
| < 30 | < 30 | < 0.5 | 0.5 to 3 | < 0.5 | CCN1CCN(c2ccc(Nc3ncc4c(n3)N(C)C(=O)N(c3cc(NC(=O)Nc5ccccc5OC)ccc3C)C4)cn2)CC1 [Compound No. 17, 1-(3-(7-((6-(4-ethylpiperazin-1-yl)pyridin-3-yl)amino)-1-methyl-2-oxo-1,4-dihydropyrimido[4,5-d]pyrimidin-3(2H)-yl)-4-methylphenyl)-3-(2-methoxyphenyl)urea] |
| < 30 | < 30 | < 0.5 | ≥ 5 | < 0.5 | COc1ccccc1NC(=O)Nc1ccc(C)c(N2Cc3cnc(Nc4ccc(N5CCN(C(C)=O)CC5)nc4)nc3N(C)C2=O)c1 [Compound No. 13, 1-(3-(7-((6-(4-acetylpiperazin-1-yl)pyridin-3-yl)amino)-1-methyl-2-oxo-1,4-dihydropyrimido[4,5-d]pyrimidin-3(2H)-yl)-4-methylphenyl)-3-(2-methoxyphenyl)urea] |
| < 30 | < 30 | < 0.5 | ≥ 5 | < 0.5 | COc1ccccc1NC(=O)Nc1ccc(C)c(N2Cc3cnc(Nc4cnn(C)c4)nc3N(C)C2=O)c1 [Compound No. 12, 1-(2-methoxyphenyl)-3-(4-methyl-3-(1-methyl-7-((1-methy-1H-pyrazol-4-yl)amino)-2-oxo-1,4-dihydropyrimido[4,5-d]pyrimidin-3(2H)-yl)phenyl)urea] |
| 100 to 300 | 30 to 100 | < 0.5 | ≥ 5 | 0.5 to 3 | Cc1ccc(Nc2ncc3c(n2)N(C)C(=O)N(c2cc(NC(=O)Nc4ccc(Cl)c(C(F)(F)F)c4)ccc2C)C3)cn1 [Compound No. 9, 1-(4-chloro-3-(trifluoromethyl)phenyl)-3-(4-methyl-3-(1-methyl-7-((6-methylpyridin-3-yl)amino)-2-oxo-1,4-dihydropyrimido[4,5-d]pyrimidin-3(2H)-yl)phenyl)urea] |
| 30 to 100 | < 30 | 0.5 to 3 | ≥ 5 | < 0.5 | COc1cccc(NC(=O)Nc2ccc(C)c(N3Cc4cnc(Nc5ccc(C)nc5)nc4N(C)C3=O)c2)c1 [Compound No. 8, 1-(3-methoxyphenyl)-3-(4-methyl-3-(1-methyl-7-((6-methylpyridin-3-yl)amino)-2-oxo-1,4-dihydropyrimido[4,5-d]pyrimidin-3(2H)-yl)phenyl)urea] |
